Data reported in ChEMBL document CHEMBL1201862, “PubChem BioAssay data set” (2004).
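Interpolation was linear, between the two tested concentrations surrounding the appropriate level; five concentrations were tested over 48 hours in 96-well plates. Abbreviation: GI50, concentration required for 50% inhibition of growth.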 Active and inactive are the calls of the source. Rule as the data show it: active = GI50 up to about 1.1 µM and inactive = higher.

Assays:
Assay in all cases: NCI-60 cell line screen, 48 h
M14 = system: M14
HOP-62 = system: HOP-62
HL-60 = system: HL-60
HCC 2998 = system: HCC 2998
UO-31 = system: UO-31
SW-620 = system: SW-620
SF-268 = system: SF-268
HT-29 = system: HT-29
SF-539 = system: SF-539
NCI/ADR-RES = system: NCI/ADR-RES
SK-MEL-5 = system: SK-MEL-5
SK-MEL-2 = system: SK-MEL-2
MDA-MB-231 = system: MDA-MB-231
A498 = system: A498
HOP-92 = system: HOP-92
LOX IMVI = system: LOX IMVI
RXF 393 = system: RXF 393
KM12 = system: KM12
NCI-H460 = system: NCI-H460
SK-OV-3 = system: SK-OV-3

Row | SMILES | GI50 (M14) | GI50 (HOP-62) | GI50 (HL-60) | GI50 (HCC 2998) | GI50 (UO-31) | GI50 (SW-620) | GI50 (SF-268) | GI50 (HT-29) | GI50 (SF-539) | GI50 (NCI/ADR-RES) | GI50 (SK-MEL-5) | GI50 (SK-MEL-2) | GI50 (MDA-MB-231) | GI50 (A498) | GI50 (HOP-92) | GI50 (LOX IMVI) | GI50 (RXF 393) | GI50 (KM12) | GI50 (NCI-H460) | GI50 (SK-OV-3)
1 | N#C/C(=C1\N=C(c2ccccc2O)Oc2ccccc21)c1ccc([N+](=O)[O-])cc1 | > 100 µM (inactive) | 33.8 µM (inactive) | > 100 µM (inactive) | > 100 µM (inactive) | > 100 µM (inactive) | > 100 µM (inactive) | > 100 µM (inactive) | > 100 µM (inactive) | 66.5 µM (inactive) | > 100 µM (inactive) | > 100 µM (inactive) | > 100 µM (inactive) | > 100 µM (inactive) | > 100 µM (inactive) | > 100 µM (inactive) | > 100 µM (inactive) | > 100 µM (inactive) | > 100 µM (inactive) | > 100 µM (inactive) | > 100 µM (inactive)
2 | COc1c(C)c(OC)c2c(c1O)[C@@H]1[C@@H]3Cc4c(OC)c(C)c(OC)c(O)c4[C@H](CNC(=O)c4cnc5ccccc5n4)N3[C@@H](C#N)[C@H](C2)N1C | 0.00221 µM (active) | 0.00429 µM (active) | 0.00153 µM (active) | 0.00327 µM (active) | 0.0064 µM (active) | 0.002 µM (active) | 0.00354 µM (active) | 0.00206 µM (active) | 0.000873 µM (active) | > 0.0643 µM (active) | 0.00254 µM (active) | 0.00183 µM (active) | 0.00326 µM (active) | 0.00232 µM (active) | 0.00136 µM (active) | 0.00108 µM (active) | 0.00341 µM (active) | 0.00149 µM (active) | 0.004 µM (active) | 0.0125 µM (active)
3 | CO/N=[N+](\[O-])NC(C)C | > 100 µM (inactive) | > 100 µM (inactive) | > 100 µM (inactive) | > 100 µM (inactive) | 5.42 µM (inactive) | > 100 µM (inactive) | > 100 µM (inactive) | > 100 µM (inactive) | > 100 µM (inactive) | > 100 µM (inactive) | > 100 µM (inactive) | > 100 µM (inactive) | > 100 µM (inactive) | > 100 µM (inactive) | > 100 µM (inactive) | > 100 µM (inactive) | > 100 µM (inactive) | > 100 µM (inactive) | > 100 µM (inactive) | > 100 µM (inactive)
4 | CC(=O)O[C@H]1C[C@@H](O[C@H]2[C@@H](O)C[C@H](O[C@H]3[C@@H](O)C[C@H](O[C@H]4CC[C@@]5(C)[C@H](CC[C@@H]6[C@@H]5C[C@@H](O)[C@]5(C)[C@@H](C7=CC(=O)OC7)CC[C@]65O)C4)O[C@@H]3C)O[C@@H]2C)O[C@H](C)[C@H]1O.CC(=O)O[C@H]1[C@@H](O)C[C@@H](O[C@H]2[C@@H](O)C[C@H](O[C@H]3[C@@H](O)C[C@H](O[C@H]4CC[C@@]5(C)[C@H](CC[C@@H]6[C@@H]5C[C@@H](O)[C@]5(C)[C@@H](C7=CC(=O)OC7)CC[C@]65O)C4)O[C@@H]3C)O[C@@H]2C)O[C@@H]1C | 0.0637 µM (active) | 0.0336 µM (active) | 0.0382 µM (active) | 0.104 µM (active) | 0.0486 µM (active) | 0.0435 µM (active) | 0.0236 µM (active) | 0.0278 µM (active) | 0.0315 µM (active) | 0.0238 µM (active) | 0.0296 µM (active) | 0.0679 µM (active) | 0.162 µM (active) | 0.0386 µM (active) | 0.0561 µM (active) | 0.0313 µM (active) | 0.0279 µM (active) | 0.0324 µM (active) | 0.0148 µM (active) | 0.0385 µM (active)
5 | CCOc1ccc(Nc2nc(N)nc(N)c2N=O)cc1 | > 100 µM (inactive) | 50.1 µM (inactive) | > 100 µM (inactive) | 55.2 µM (inactive) | 29.9 µM (inactive) | 91.2 µM (inactive) | 89.7 µM (inactive) | 30.4 µM (inactive) | 80.5 µM (inactive) | 47.1 µM (inactive) | 49.5 µM (inactive) | 65.2 µM (inactive) | 40 µM (inactive) | > 100 µM (inactive) | 17.9 µM (inactive) | 32.1 µM (inactive) | 43.9 µM (inactive) | > 100 µM (inactive) | 32.9 µM (inactive) | > 100 µM (inactive)
6 | COc1ccc(-c2cc(C3CC3)nc(SCC(=O)O)c2C#N)cc1 | > 100 µM (inactive) | > 100 µM (inactive) | 54.5 µM (inactive) | > 100 µM (inactive) | 1.85 µM (inactive) | > 100 µM (inactive) | > 100 µM (inactive) | > 100 µM (inactive) | > 100 µM (inactive) | > 100 µM (inactive) | > 100 µM (inactive) | > 100 µM (inactive) | > 100 µM (inactive) | > 100 µM (inactive) | 82.6 µM (inactive) | 36.6 µM (inactive) | 62.8 µM (inactive) | > 100 µM (inactive) | 52.1 µM (inactive) | 56.2 µM (inactive)
7 | CN(/N=C/c1ccccn1)C1=NCCN1 | > 100 µM (inactive) | > 100 µM (inactive) | > 100 µM (inactive) | > 100 µM (inactive) | > 100 µM (inactive) | > 100 µM (inactive) | > 100 µM (inactive) | > 100 µM (inactive) | > 100 µM (inactive) | > 100 µM (inactive) | > 100 µM (inactive) | > 100 µM (inactive) | > 100 µM (inactive) | > 100 µM (inactive) | > 100 µM (inactive) | > 100 µM (inactive) | > 100 µM (inactive) | > 100 µM (inactive) | > 100 µM (inactive) | > 100 µM (inactive)
8 | COc1ccc(NC(=O)CC(=O)N2N=C(C)C(/N=N\c3ccc(S(=O)(=O)c4ccc(/N=N/C5C(=O)N(C(=O)CC(=O)Nc6ccc(OC)cc6)N=C5C)cc4)cc3)C2=O)cc1 (stereo not given) | > 100 µM (inactive) | 45.6 µM (inactive) | > 100 µM (inactive) | > 100 µM (inactive) | > 100 µM (inactive) | > 100 µM (inactive) | 35.9 µM (inactive) | > 100 µM (inactive) | > 100 µM (inactive) | > 100 µM (inactive) | 63 µM (inactive) | > 100 µM (inactive) | > 100 µM (inactive) | > 100 µM (inactive) | 63.5 µM (inactive) | > 100 µM (inactive) | 31.3 µM (inactive) | > 100 µM (inactive) | > 100 µM (inactive) | > 100 µM (inactive)
9 | CC(C)/C=C1\CCC(CN(C)C)C1=O (stereo not given) | 1.77 µM (inactive) | 18.4 µM (inactive) | 1.09 µM (active) | 7.03 µM (inactive) | 8.79 µM (inactive) | 0.656 µM (active) | 8.85 µM (inactive) | 2.12 µM (inactive) | 7.29 µM (inactive) | 3 µM (inactive) | 4.97 µM (inactive) | 7.05 µM (inactive) | 1.42 µM (inactive) | 6.87 µM (inactive) | 1.31 µM (inactive) | 4.99 µM (inactive) | 0.656 µM (active) | 1.22 µM (inactive) | 18.9 µM (inactive) | 18.3 µM (inactive)
10 | O=C(O)c1cc(=O)c2c(OCC(O)COc3cccc4oc(C(=O)O)cc(=O)c34)cccc2o1 | > 88.1 µM (inactive) | > 91.2 µM (inactive) | > 100 µM (inactive) | > 100 µM (inactive) | > 100 µM (inactive) | > 83 µM (inactive) | > 100 µM (inactive) | > 75.7 µM (inactive) | 98.2 µM (inactive) | > 100 µM (inactive) | > 65.9 µM (inactive) | > 56.4 µM (inactive) | > 81.1 µM (inactive) | > 59 µM (inactive) | > 63.8 µM (inactive) | > 61.4 µM (inactive) | > 100 µM (inactive) | > 85.9 µM (inactive) | > 100 µM (inactive) | > 72.9 µM (inactive)
